Test results published in the CheMixHub viscosity set.

Assay: xn = mol fraction of the nth substance listed

Oc1ccccc1 + CC(=O)c1ccccc1
303.15 K, 101 kPa
Conditions | viscosity [mPa·s]
x2 = 0.0901 | 4.976
x2 = 0.2182 | 4.319
x2 = 0.3102 | 3.905
x2 = 0.4048 | 3.519
x2 = 0.5083 | 3.131
x2 = 0.5936 | 2.839
x2 = 0.7241 | 2.404
x2 = 0.7583 | 2.295
x2 = 0.8846 | 1.887

COCCOCCOC + CC(C)(C)O
viscosity [mPa·s], 101 kPa
Conditions | x1 = 0.1032 | x1 = 0.2054 | x1 = 0.3014 | x1 = 0.4031 | x1 = 0.5025 | x1 = 0.6046 | x1 = 0.7072 | x1 = 0.8058 | x1 = 0.8973
298.15 K | 2.377 | 1.768 | 1.453 | 1.259 | 1.146 | 1.073 | 1.032 | 1.008 | 0.995
303.15 K | 1.954 | 1.523 | 1.274 | 1.123 | 1.033 | 0.974 | 0.943 | 0.921 | 0.915
308.15 K | 1.625 | 1.319 | 1.13 | 1.009 | 0.937 | 0.888 | 0.864 | 0.852 | 0.844

CC=CC(=O)O + CC(C)=O
viscosity [mPa·s], 101 kPa
Conditions | x1 = 0.0488 | x1 = 0.1 | x1 = 0.1504 | x1 = 0.1994 | x1 = 0.2534 | x1 = 0.2705
298.15 K | 0.3461 | 0.3887 | 0.4349 | 0.4858 | 0.5435 | 0.5686
303.15 K | 0.3299 | 0.3718 | 0.4141 | 0.461 | 0.5149 | 0.5368
308.15 K | 0.3157 | 0.3531 | 0.3935 | 0.4352 | 0.4883 | 0.5066
313.15 K | 0.3017 | 0.3379 | 0.3756 | 0.4196 | 0.463 | 0.4869
323.15 K | 0.2771 | 0.3079 | 0.342 | 0.3849 | 0.4184 | 0.438

ClC(Cl)C(Cl)Cl + CC(C)=O
298.15 K, 101 kPa
Conditions | viscosity [mPa·s]
x1 = 0.2 | 0.509
x1 = 0.4 | 0.811
x1 = 0.6 | 1.138
x1 = 0.8 | 1.499

OC(C(F)(F)F)C(F)(F)F + CC(C)=O
298.15 K, 101 kPa
Conditions | viscosity [mPa·s]
x2 = 0.2 | 1.35
x2 = 0.4 | 0.964
x2 = 0.5 | 0.838
x2 = 0.6 | 0.658
x2 = 0.8 | 0.45
x2 = 0.9 | 0.369
x2 = 0.95 | 0.336

Oc1ccccc1 + CC(C)=O
viscosity [mPa·s], 101 kPa
Conditions | 293.2 K | 302.95 K | 313.25 K | 322.95 K
x1 = 0.0613 | – | 0.36 | 0.328 | 0.299
x1 = 0.0926 | 0.429 | – | – | –
x1 = 0.1303 | – | 0.441 | 0.399 | 0.36
x1 = 0.1837 | 0.56 | – | – | –
x1 = 0.1912 | – | 0.521 | 0.47 | 0.422
x1 = 0.2695 | – | 0.67 | 0.59 | 0.53
x1 = 0.2749 | 0.755 | – | – | –
x1 = 0.3325 | – | 0.808 | 0.711 | 0.628
x1 = 0.3763 | 1.055 | – | – | –
x1 = 0.4181 | – | 1.058 | 0.904 | 0.794
x1 = 0.458 | 1.379 | – | – | –
x1 = 0.4832 | – | 1.319 | 1.101 | 0.95
x1 = 0.5364 | 1.853 | – | – | –
x1 = 0.5583 | – | 1.658 | 1.363 | 1.15
x1 = 0.6341 | 2.75 | – | – | –
x1 = 0.6402 | – | 2.18 | 1.741 | 1.425
x1 = 0.6982 | 3.59 | – | – | –
x1 = 0.7215 | – | 2.91 | 2.23 | 1.785
x1 = 0.7829 | 4.97 | – | – | –
x1 = 0.8187 | – | 3.915 | 2.875 | 2.245
x1 = 0.8885 | – | 4.905 | 3.465 | 2.615
x1 = 0.8891 | 7.3 | – | – | –

COCCOCCOC + CC(C)CC(C)(C)C
viscosity [mPa·s], 101.33 kPa
Conditions | x1 = 0.0931 | x1 = 0.1978 | x1 = 0.2916 | x1 = 0.4016 | x1 = 0.4538 | x1 = 0.5881 | x1 = 0.687 | x1 = 0.7926 | x1 = 0.8997
298.15 K | 0.49 | 0.511 | 0.538 | 0.58 | 0.602 | 0.668 | 0.726 | 0.808 | 0.887
303.15 K | 0.46 | 0.481 | 0.507 | 0.545 | 0.564 | 0.624 | 0.677 | 0.741 | 0.821
308.15 K | 0.435 | 0.455 | 0.478 | 0.512 | 0.529 | 0.584 | 0.632 | 0.69 | 0.762
313.15 K | 0.413 | 0.43 | 0.451 | 0.482 | 0.5 | 0.548 | 0.592 | 0.647 | 0.712
318.15 K | 0.389 | 0.405 | 0.425 | 0.453 | 0.468 | 0.512 | 0.553 | 0.601 | –

CCCCCCn1cc[n+](C)c1.F[B-](F)(F)F + CC(C)CO
101 kPa
Conditions | viscosity [mPa·s]
293.15 K, x1 = 0.5606 | 49.75
303.15 K, x1 = 0.8327 | 84.55
308.15 K, x1 = 0.1004 | 4.975

COCCOCCOC + CC(C)CO
viscosity [mPa·s], 101 kPa
Conditions | x1 = 0.104 | x1 = 0.2048 | x1 = 0.3058 | x1 = 0.4023 | x1 = 0.5027 | x1 = 0.605 | x1 = 0.7019 | x1 = 0.8023 | x1 = 0.9024
298.15 K | 2.146 | 1.635 | 1.377 | 1.231 | 1.136 | 1.076 | 1.038 | 1.011 | 0.995
308.15 K | 1.649 | 1.302 | 1.121 | 1.013 | 0.947 | 0.904 | 0.876 | 0.856 | 0.846
318.15 K | 1.284 | 1.047 | 0.938 | 0.845 | 0.796 | 0.78 | 0.747 | 0.733 | 0.726

CCCCCCn1cc[n+](C)c1.F[B-](F)(F)F + CC(C)O
101 kPa
Conditions | viscosity [mPa·s]
293.15 K, x1 = 0.7711 | 78.36
313.15 K, x1 = 0.08354 | 1.965
323.15 K, x1 = 0.238 | 3.035
323.15 K, x1 = 0.8507 | 28.15

COC(=O)OC + CC(C)O
101.3 kPa
Conditions | viscosity [mPa·s]
293.15 K, x1 = 0.0526 | 1.968
293.15 K, x1 = 0.0934 | 1.706
293.15 K, x1 = 0.2033 | 1.212
293.15 K, x1 = 0.3129 | 0.943
293.15 K, x1 = 0.4065 | 0.817
293.15 K, x1 = 0.5 | 0.74
293.15 K, x1 = 0.6079 | 0.686
293.15 K, x1 = 0.7026 | 0.647
293.15 K, x1 = 0.8048 | 0.609
293.15 K, x1 = 0.9008 | 0.593
293.15 K, x1 = 0.9507 | 0.601
298.15 K, x1 = 0.0498 | 1.733
298.15 K, x1 = 0.0979 | 1.454
298.15 K, x1 = 0.2031 | 1.046
298.15 K, x1 = 0.2999 | 0.844
298.15 K, x1 = 0.3972 | 0.74
298.15 K, x1 = 0.4892 | 0.69
298.15 K, x1 = 0.5938 | 0.654
298.15 K, x1 = 0.6971 | 0.625
298.15 K, x1 = 0.7983 | 0.589
298.15 K, x1 = 0.9012 | 0.567
298.15 K, x1 = 0.9451 | 0.567
303.15 K, x1 = 0.0437 | 1.537
303.15 K, x1 = 0.1028 | 1.287
303.15 K, x1 = 0.2013 | 0.992
303.15 K, x1 = 0.3062 | 0.802
303.15 K, x1 = 0.384 | 0.713
303.15 K, x1 = 0.4951 | 0.642
303.15 K, x1 = 0.5998 | 0.606
303.15 K, x1 = 0.7053 | 0.581
303.15 K, x1 = 0.8047 | 0.562
303.15 K, x1 = 0.9062 | 0.545
303.15 K, x1 = 0.937 | 0.542
313.15 K, x1 = 0.0507 | 1.147
313.15 K, x1 = 0.0997 | 1.005
313.15 K, x1 = 0.1984 | 0.799
313.15 K, x1 = 0.2975 | 0.668
313.15 K, x1 = 0.4001 | 0.592
313.15 K, x1 = 0.4884 | 0.553
313.15 K, x1 = 0.5959 | 0.522
313.15 K, x1 = 0.7017 | 0.506
313.15 K, x1 = 0.8014 | 0.494
313.15 K, x1 = 0.9053 | 0.49
313.15 K, x1 = 0.9492 | 0.491
